Consider five compounds from US4859658A, “Compound compositions with improved analgesic antipyretic and anti-inflammatory activity” (Ricerfarma S.R.L., priority 1987, dated 1989).

In one series the test system is yeast-induced fever. Description: Anti-pyretic effect (yeast-induced) test in rats. The class given is in vivo, rat. To be noted: oral gavage. The method, then:
Anti-pyretic effect of Combination of Thiocetamol with Aspirin
(yeast-induced) test in rats
I. TEST MATERIALS: Thioacetamol, Aspirin
1. Fever in test animals was induced by subcutaneous
injection of yeast (10% in saline). Basal
rectal temperature (BRT) was determined in all
test animals with the aid of a YSI thermistor probe
2. Four hours after the yeast injection a test drug
suspended in 1% methyl cellulose (MC), was
administered by oral gavage to groups of
male rats (8 rats/group). Controls were
3. Measurements of rectal temperatures (ERT) in
response to the various treatments, were
carried out at 1, 3 and 5 hours after
the test drug administration.
Evaluation of anti-pyretic activity was based on the
temperature difference (Δt) between BRT and ERT at
each of the three respective test periods
for each treatment group.
Data was calculated by ranking Δt values obtained in
test drug-treated and control rats and expressed

For series [1] the following is noted: single oral dose, cited from earlier work.
For series [2] the following is noted: cited from earlier work; for ED50: each compound alone, as reported by Maruyama Y. et al.
The conditions of series [3]: cited from earlier work; for LD50: in vivo.
For series [4], the system named is carrageenin-induced oedema. Description: Anti-inflammatory effect, rat paw oedema test. To be noted: oral gavage. The series is classed as in vivo. The method, then:
I. TEST MATERIALS: Thioacetamol, Indomethacin (Indomet)
The test drugs, suspended in 1% methyl cellulose (MC),
were administered by oral gavage to groups of male rats
(6 rats/group). Controls were given MC only.
2. Three hours following the test drug administration,
0.1 ml carrageenin (1% in saline) was injected
sub-plantar into the right hind paw. Identically
saline-injected left hind paw served
3. Readings were taken on each paw 3 hours following
injection of the test drug. The volume of both
hind paws was measured with an Hg-displacement
Volumeter (Huge, Basile, Italy).
Evaluation of anti-inflammatory activity was based on
the difference in volume (ΔV) between
the right (carrageenin-induced oedema) and left
(saline-control) hind paws.
Data was calculated by ranking ΔV values obtained
in drug-treated and control rats and expressed
percent increase over control for normal

For series [5] the following is noted: in vivo, 500 mg/kg. From the text:
It must be also pointed out that the combination of very low doses of each component is not toxic.

Another series concerns hepatic parenchyma. The conditions noted are these: compared with parent paracetamol; cited from earlier work.

Where two headings read alike, the source gives them in different places.

As usually defined, the ED50 is the midpoint of the dose-response relation. In general, LD50 refers to the dose expected to kill half of the subjects tested.

Consider `CC(=O)Oc1ccccc1C(=O)O` [Aspirin], for which the “Δt at 1 hour” value with yeast-induced fever (50 mg/kg) was determined as 86%; in the series on yeast-induced fever (100 mg/kg), 67%; in the series with yeast-induced fever (200 mg/kg), 49%. Further, the “Δt at 3 hour” value with yeast-induced fever (50 mg/kg) was 83%; in the series with yeast-induced fever (100 mg/kg) it was 55%; in the series on yeast-induced fever (200 mg/kg) it was 29%. Moreover, the “Δt at 5 hour” value was found to be 67% with yeast-induced fever (50 mg/kg), 56% with yeast-induced fever (100 mg/kg) and 19% in the series with yeast-induced fever (200 mg/kg). Further, the Gastric lesions in series [1] (100 mg/kg) is given as 0%; in series [1] (300 mg/kg), 60%; in series [1] (600 mg/kg) it was 100%. Further, the Intestinal lesions is on record as 0% in series [1] (100 mg/kg), 10% in series [1] (300 mg/kg) and 10% in series [1] (600 mg/kg). Besides, the median effective dose (ED50) in series [2] was 500 mg/kg. Moreover, in series [3], the LD50 is 1000 mg/kg.

For `O=C(O)Cc1ccccc1Nc1c(Cl)cccc1Cl` [Diclofenac], the ED50 in series [2] is 5 mg/kg.

On to `CC(C)Cc1ccc(C(C)C(=O)O)cc1` (stereo not drawn) [Ibuprofen], for which the ED50 in series [2] was 60 mg/kg.

In the case of `COc1ccc2c(c1)c(CC(=O)O)c(C)n2C(=O)c1ccc(Cl)cc1` [Indomethacin], the entries for the “ΔV (percent over control)” value in series [4] (1 mg/kg), in series [4] (2 mg/kg) and in series [4] (4 mg/kg) were 85%, 63% and 58%, respectively. Besides, the Gastric lesions in series [1] (3 mg/kg) is reported as 0%; in series [1] (10 mg/kg) it was 100%. For the same compound, the Intestinal lesions in series [1] (3 mg/kg) is recorded as 0%; in series [1] (10 mg/kg), 30%. For the same compound, the “anti-inflammatory dose (ED50)” value in series [2] (as reported) was 3.5 mg/kg. In addition, the ED50 in series [2] is 3.6 mg/kg. Besides, in series [3], the LD50 is on record as 15.2 mg/kg.

In the case of `CC(=O)Nc1ccc(OC(=O)c2cccs2)cc1` [Thiocetamol, p-acetamidophenyl thiophene-2-carboxylate], the figures for the “ΔV (percent over control)” value in series [4] (150 mg/kg), in series [4] (300 mg/kg) and in series [4] (600 mg/kg) were 90%, 70% and 62%, respectively. Also, the “Δt at 1 hour” value worked out at 86% in the series on yeast-induced fever (75 mg/kg), 47% with yeast-induced fever (150 mg/kg) and 26% in the series on yeast-induced fever (300 mg/kg). Besides, the “Δt at 3 hour” value in the series with yeast-induced fever (75 mg/kg) worked out at 91%; with yeast-induced fever (150 mg/kg), 96%; in the series on yeast-induced fever (300 mg/kg), 40%. The figures for the “Δt at 5 hour” value in the series on yeast-induced fever (75 mg/kg), with yeast-induced fever (150 mg/kg) and with yeast-induced fever (300 mg/kg) were 91%, 84% and 61%, respectively. Moreover, in series [5], the toxic effects result is “without any toxic effects”. Further, the “toxicity towards the hepatic parenchyma” value in the series with hepatic parenchyma is reported as “remarkable lower toxicity towards the hepatic parenchyma”. Besides, in series [3] (compared with parent paracetamol, in words), the “acute median lethal dose (LD50)” value is listed as “far lower than that of the parent paracetamol”. For the same compound, in series [3], the 50% lethal dose (LD50) entry was “around 2000 mg/kg”.
